One experiment has as its system Streptococcus pyogenes. Kind of experiment: Antimicrobial susceptibility test (disc diffusion), Streptococcus pyogenes. The class given is cell-based. Conditions: dash = none; for Sensitive %: share of Streptococcus pyogenes strains classed sensitive. On the procedure:
(§1) Several bacterial colonies were transferred from the agar plates to bijoux containing MHB. The suspension is incubated at 35° C. and subsequently diluted down in sterile saline to match the density of a McFarland standard solution. A sterile cotton swab is then dipped in the bacterial inoculum and pressed against the bijou walls to remove any excess solution. MHA plates are then thoroughly streaked with the swab three times, turning the plate 60° each time. The discs are placed onto the inoculated plate within 15 minutes. The positions of the discs should allow enough space (≈24 mm) around each individual disc in order to measure the diffusion diameter at a later stage. The plates were incubated immediately at 35° C. for 16-18 hours for all organisms excluding VRE, and MRSA, which require a 24-hour incubation. The experiment was valid if there was a confluent bacterial growth, not single colonies, and circular inhibition zones were evident. Clear zones produced around the disc were measured with a ruler and interpreted according to the tables provided by the NCCLS. Bacteria were classified as sensitive, intermediate or resistant.

In another experiment the test system is Listeria monocytogenes. Put plainly: Antimicrobial susceptibility test (disc diffusion), Listeria monocytogenes. The class given is cell-based. Particulars: dash = none; for Sensitive %: share of Listeria monocytogenes strains classed sensitive; for Resistant %: share of Listeria monocytogenes strains classed resistant. The procedure:
as §1

Another experiment concerns Streptococcus agalactiae. Kind of experiment: Antimicrobial susceptibility test (disc diffusion), Streptococcus agalactiae. The class given is cell-based. Particulars: dash = none; for Resistant %: share of Streptococcus agalactiae strains classed resistant; for Sensitive %: share of Streptococcus agalactiae strains classed sensitive. On the procedure:
as §1
A general note: A growth-free zone around the sample is the usual read-out of agar diffusion tests.

In the next experiment the test system is VRE. Kind of experiment: Antimicrobial susceptibility test (disc diffusion), VRE. The class given is cell-based, vancomycin resistant enterococci. Conditions: dash = none; for Resistant %: share of VRE strains classed resistant; for Sensitive %: share of VRE strains classed sensitive. The procedure:
as §1

The subject of experiment [1] is K562 human chronic myeloid leukaemia cells. Conditions: value quoted for comparison; read-out: IC50 quoted in WO 93/18045; cited from earlier work.
Experiment [2] relates to MRSA. Kind of experiment: Antimicrobial susceptibility test (disc diffusion), MRSA. It is filed as cell-based, methicillin resistant Staphylococcus aureus. Conditions: for Resistant %: share of MRSA strains classed resistant; for Sensitive %: share of MRSA strains classed sensitive. The procedure: as §1
For experiment [3], the system named is MRSA. Conditions: literature values for comparison; cited from earlier work.

Converted amounts (≈) assume the structure as drawn.

For `NCC[C@H](O)C(=O)N[C@@H]1C[C@H](N)[C@@H](O[C@H]2O[C@H](CN)[C@@H](O)[C@H](O)[C@H]2O)[C@H](O)[C@H]1O[C@H]1O[C@H](CO)[C@@H](O)[C@H](N)[C@H]1O` [Amikacin], the Resistant % in the experiment on Streptococcus pyogenes (share of Streptococcus pyogenes strains classed resistant) and in the experiment on Streptococcus agalactiae was 100% in each case. The Sensitive % with Listeria monocytogenes is given as 100%.
In the case of `CCC[C@@H]1C[C@@H](C(=O)N[C@@H]([C@H]2O[C@H](SC)[C@H](O)[C@@H](O)[C@H]2O)[C@H](C)Cl)N(C)C1` [Clindamycin], the Sensitive % was determined as 100% in the experiment on Streptococcus pyogenes, 15% in the experiment on VRE and 100% in the experiment on Streptococcus agalactiae. Further, the Resistant % is 100% in the experiment on Listeria monocytogenes and 85% in the experiment on VRE.
For the compound `CC[C@H]1OC(=O)[C@H](C)[C@@H](O[C@H]2C[C@@](C)(OC)[C@@H](O)[C@H](C)O2)[C@H](C)[C@@H](O[C@@H]2O[C@H](C)C[C@H](N(C)C)[C@H]2O)[C@](C)(O)C[C@@H](C)C(=O)[C@H](C)[C@@H](O)[C@]1(C)O` [Erythromycin], the Sensitive % with Streptococcus pyogenes came to 100%; in the experiment with Listeria monocytogenes, 100%; with VRE it was 10%; with Streptococcus agalactiae, 100%. In the experiment on VRE, this compound displayed a Resistant % of 90%.
Consider `CC=C1C[C@H]2C=Nc3cc(OCCCOc4cc5c(cc4OC)C(=O)N4CC(=CC)C[C@H]4C=N5)c(OC)cc3C(=O)N2C1` [Example 6 in WO 93/18045], for which the IC50 in experiment [1] is 10 nM.
`Cc1onc(-c2ccccc2)c1C(=O)N[C@@H]1C(=O)N2[C@@H]1SC(C)(C)[C@@H]2C(=O)O` [Oxacillin]: the Sensitive % in the experiment on Streptococcus pyogenes and in the experiment on Streptococcus agalactiae was 100% throughout. Further, the Resistant % in the experiment with Listeria monocytogenes and with VRE was 100% each time.
For `CO[C@H]1/C=C/O[C@@]2(C)Oc3c(C)c(O)c4c(O)c(c(/C=N/N5CCN(C)CC5)c(O)c4c3C2=O)NC(=O)/C(C)=C\C=C\[C@H](C)[C@H](O)[C@@H](C)[C@@H](O)[C@@H](C)[C@H](OC(C)=O)[C@@H]1C` [Rifampicin], the Sensitive % in the experiment on Streptococcus pyogenes, in the experiment with Listeria monocytogenes and in the experiment on Streptococcus agalactiae was 100% in each case.
On to `CN(C)[C@@H]1C(O)=C(C(N)=O)C(=O)[C@@]2(O)C(O)=C3C(=O)c4c(O)cccc4[C@@](C)(O)[C@H]3C[C@@H]12` [Tetracycline], for which the Sensitive % amounted to 100% with Streptococcus pyogenes, 100% with Listeria monocytogenes, 40% in the experiment with VRE and 10% in the experiment on Streptococcus agalactiae. Besides, the Resistant % was 60% with VRE and 90% with Streptococcus agalactiae.
With `COc1cc(Cc2cnc(N)nc2N)cc(OC)c1OC` [Trimethophrim], the Sensitive % in the experiment with Streptococcus pyogenes is 100%; in the experiment on MRSA [2] (dash = none), 68%; in the experiment with Listeria monocytogenes, 100%; in the experiment with VRE it was 25%; in the experiment on Streptococcus agalactiae, 100%. Also, the Resistant % with MRSA [2] (dash = none) is recorded as 32%; in the experiment on VRE, 75%.
Consider `CN[C@H](CC(C)C)C(=O)N[C@H]1C(=O)N[C@@H](CC(N)=O)C(=O)N[C@H]2C(=O)N[C@H]3C(=O)N[C@H](C(=O)N[C@H](C(=O)O)c4cc(O)cc(O)c4-c4cc3ccc4O)[C@H](O)c3ccc(c(Cl)c3)Oc3cc2cc(c3O[C@@H]2O[C@H](CO)[C@@H](O)[C@H](O)[C@H]2O[C@H]2C[C@](C)(N)[C@H](O)[C@H](C)O2)Oc2ccc(cc2Cl)[C@H]1O` [Vancomycin], for which the Sensitive % with Streptococcus pyogenes, with Listeria monocytogenes and with Streptococcus agalactiae was 100% throughout. For the same compound, in the experiment with MRSA [3], the “MIC in MRSA” value was “about 2 mg/L”. Moreover, the “susceptibility of all MRSA strains used” value with MRSA [2] (in words, summary of Table 4) is reported as “completely susceptible”. Also, the Resistant % in the experiment with VRE worked out at 100%.
For the compound `CC(=O)NC[C@H]1CN(c2ccc(N3CCOCC3)c(F)c2)C(=O)O1` [linezolid], the “MIC in MRSA” value in the experiment on MRSA [3] is roughly 1 µg/mL (≈ 2.96 µM).
Consider Gentamicin, for which the Sensitive % is 100% in the experiment on Streptococcus pyogenes, 22% in the experiment with MRSA [2] (dash = none), 100% in the experiment with Listeria monocytogenes and 20% in the experiment with VRE. The compound further showed an Intermediate % in the experiment with MRSA [2] (share of MRSA strains classed intermediate, dash = none) of 8%. Further, the Resistant % in the experiment with MRSA [2] (dash = none) is listed as 70%; in the experiment with VRE, 80%; in the experiment with Streptococcus agalactiae, 100%.
Take synercid: in the experiment with MRSA [3], the “MIC in MRSA” value was roughly 0.5 µg/mL.

The values above are taken from patent US7528126B2, “Pyrrolobenzodiazepines” (Spirogen Limited, priority 2004, dated 2009).
